Structures can show the parent of a compound that is named as a salt.
Columns and labels:
[1] = tested on: Biozzi ABH mice; assay: Chronic EAE in Biozzi ABH mice (spinal cord homogenate); assay type: in vivo, mouse; conditions: treatment from onset of clinical signs
[2] = tested on: human neurons; assay: Iron (FeSO4) mediated neurotoxicity screening, MAP-2 positive neurons counted; assay type: cell-based
How it was run: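 Fetal human neurons (15-20 wk), plated with cytosine arabinoside, were pre-incubated 1 h with compounds (10 mM DMSO stocks) before FeSO4 at 25-50 μM final. Cells fixed a day later; MAP-2 immunostaining plus Hoechst nuclei imaged automatically, sites per well averaged; quadruplicates.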

[3] = tested on: B-cells; assay: Proliferation of activated B-cells (3H-thymidine); assay type: cell-based, human; conditions: BCR/anti-CD40L/IL-4 activation
Experimental: (§1) Venous blood from healthy volunteers was obtained and peripheral blood mononuclear cells (PBMCs) were isolated by Ficoll gradient centrifugation (1800 RPM, 30 min). From PBMCs, B-cells were isolated by positive selection with CD19 directed microbeads (Stemcell Technologies). Purity was assessed by FACS after staining for CD19 (Stemcell Technologies). Cells were plated in a concentration of 2.5×10^5 cells/well in X-VIVO™ medium (Lonza) supplemented with 1% penicillin/streptomycin and 1% Glutamax and treated with drugs for 1 h. […] Medium as well as respective drugs were re-added followed by application of ^3H-thymidine in a concentration of 1 μCi per well to investigate proliferation.

[4] = tested on: human neurons; assay: Live cell imaging of propidium iodide positive neurons challenged with FeSO4; assay type: cell-based; conditions: FeSO4 50 μM, pre-treatment 1 h
Experimental: Neurons were prepared as described above. Directly after the addition of FeSO4 to healthy neurons, the live cell-permeant Hoechst 33342 (1:2 diluted in AIM-V medium, nuclear blue; ThermoFisher Scientific, Grand Island, NY, USA) and the live cell-impermeable propinium iodide (PI, 1:20 diluted in AIM-V medium) were added in a volume of 20 μI (Sigma-Aldrich). In compromised cells, PI could now diffuse across the plasma membrane. Live cell imaging was performed using the automated ImageXpress® imaging system under controlled environmental conditions (37° C. and 5% CO2). Images were taken from 9 sites per well at baseline and then every 30 min for 12h. After export with MetaXpress®, videos were edited with ImageJ (NIH) in a uniform manner. Nuclei were pseudo colored in cyan, PI-positive cells in red.
Live cell imaging over 12 h supported the neuroprotective effects of drugs. We selected indapamide and desipramine for live imaging studies.

[5] = tested on: C57BL/6 mice; assay: Histological analyses of the spinal cord of EAE mice (HE/LFB, Iba1, Bielschowsky); assay type: in vivo, mouse; conditions: 25 mg/kg IP from day 0
From the text: Spinal cords and cerebella were removed. […] Cervical and lumbar cords were snap frozen.

[6] = tested on: microglia; conditions: shown previously; cited from earlier work
[7] = tested on: B-cells; assay: TNF-α release of activated B-cells (ELISA); assay type: cell-based, human; conditions: BCR/anti-CD40L/IL-4 activation
Experimental: as §1

[8] = tested on: T-lymphocytes; assay: Cell cycle analysis of activated splenocytes by flow cytometry (propidium iodide); assay type: cell-based, mouse
Experimental: Two days after activation and drug treatment splenocytes were harvested, washed with PBS followed by resuspension in PBS with 2% FBS. Cell cycle analysis was performed taking advantage of propidium iodide staining (50 μg/ml) using an established protocol (Besson and Yong, 2000). Cells were washed in cold PBS and resuspended in PI/Triton X-100 staining solution (10 ml 0.1% (v/v) Triton X-100 in PBS with 2 mg DNAse-free RNAse A and 0.4 ml of 500 μg/ml PI), followed by incubation at 4° C. for 30 min. Stained cells were analyzed on a FACSCalibur™ with the software CellQuest™ (BD Biosciences). Cell cycle analysis was conducted using the software ModFit LT, version 3.3 (Verity Software House Inc.).
Cells were identified by gating into the lymphocyte population, followed by single cell gating to exclude doublets and aggregates. This was followed by identification of the G0/G1 population and processing with the software ModFit LT, version 3.3 (Verity Software House Inc.) to calculate the percentage of cells in different cell cycles.

CN(C)CCCN1c2ccccc2CCc2ccc(Cl)cc21 [CLOMIPRAMINE HYDROCHLORIDE]
clinical severity in chronic EAE [1]: reduced clinical severity | viability at 10 µM ([2]; Homo sapiens, Neuron, drug 10 μM 1 h before FeSO4 25 or 50 μM, MAP-2 neurons after 24 h, read-out: Drug % control (mean): number of neurons normalized to untreated control): 107% | concentration from which neuroprotection against iron toxicity is significant ([2]; concentration response): 100 nM | Drug % control (mean): number of neurons normalized to untreated control ([2]; drug 10 μM 1 h before FeSO4 25 or 50 μM, MAP-2 neurons after 24 h, HYDROCHLORIDE): 107.30% | protection from FeSO4-mediated neurotoxicity (in words) ([2]; drug 10 μM, human neurons): strong protection | concentration from which proliferation of activated B-cells is reduced [3]: 2 µM | number of PI-positive neurons in response to FeSO4 over 12 h [4]: attenuated | axonal damage (Bielschowsky stain) [5]: significantly less axonal damage | histological score of the spinal cord (inflammation) [5]: 1.7 | microglial activation (Iba1 staining) [5]: prevented microglial activation | microglia inhibitory activity [6]: did not have microglia inhibitory activity | concentration from which production of TNF-α of activated B-cells is reduced [7]: 2 µM | concentration from which cell cycle arrest is seen (more cells in G1, less in S-phase) [8]: 2 µM

Source: patent publication US20210393645A1, “TREATMENT FOR PROGRESSIVE MULTIPLE SCLEROSIS” (UTI LIMITED PARTNERSHIP, priority 2016, published 2021)
